Results as given in US8629169B2, “4-substituted-3-phenylsulfanylmethyl-bicyclo[3.1.0]hexane compounds as mGluR 2/3 antagonists” (Eli Lilly and Company, priority 2010, dated 2014).

Key:
human mGlu6 receptor = biological target: T1, human mGlu6 receptor (Homo sapiens, UniProt O15303); experiment: mGlu6 cAMP antagonist assay (reference agonist L-AP4); assay type: cell-based; conditions: cAMP format
T1 construct: expressed in transfected cells; host or cells: AV12 cells co-expressing rat EAAT1
Source text: (§1) The relative antagonist potencies of the compounds of the invention for the other human mGlu receptors can be assessed with either a cAMP assay or fluorometric calcium response assay (see for example Fell et al., JPET (in press)). Briefly, individual AV12 cell lines containing the rat EAAT1 glutamate transporter and stably expressing the human mGlu1, 2, 3, 4, 5, 6, & 8 receptors are used for these studies. The mGlu1 and 5 receptors are Gq-coupled, so they naturally signal through phospholipase C, producing a calcium flux response which can be used to measure receptor activation using a Fluorometric Imaging Plate Reader (FLIPR, Molecular Devices). The cell lines expressing the mGlu2, 3, 4, and 8 receptor are designed to express the Gα15 subunit so that these Gi-coupled receptors will generate a calcium flux response similar to the mGlu1 and 5 receptor expressing cell lines. The mGlu6 receptor is tested in a cAMP format using methods analogous to those developed for mGlu2 and mGlu3 above. […]
Antagonist activity in mGlu6 cells is measured using cAMP in a method analogous to that described above for mGlu2 and mGlu3 activity, except that the reference agonist was L-AP4 (Tocris). […] Relative IC50 and EC50 values are calculated from the top-bottom range of the concentration response curve using a four-parameter logistic curve fitting program (ActivityBase v5.3.1.22).

human mGlu4 receptor = biological target: T2, human mGlu4 receptor (Homo sapiens, UniProt Q14833); experiment: FLIPR calcium antagonist assay for mGlu receptor selectivity, mGlu4; assay type: cell-based; conditions: inhibition of EC90 glutamate response, read-out: mGlu4 % inhib. @12.5 μM
T2 construct: expressed in transfected cells; host or cells: AV12 cells co-expressing rat EAAT1 and Galpha15
Source text: as §1, with “Devices).” for “Devices). The cell lines expressing the mGlu2, 3, 4, and 8 receptor are designed to express the Gα15 subunit so that these Gi-coupled receptors will generate a calcium flux response similar to the mGlu1 and 5 receptor expressing cell lines. The mGlu6 receptor is tested in a cAMP format using methods analogous to those developed for mGlu2 and mGlu3 above.”
(§2) Intracellular calcium levels are monitored using FLIPR before and after the addition of test compounds and Fluo-3 AM (Invitrogen) or Calcium 4 (Molecular Devices) dye, depending on the cell line. […] The results are analyzed using GraphPad Prism v4.03 to calculate the concentrations of glutamate needed to induce the EC90 (antagonist assay) and EC10 (potentiator assay) responses.
(§3) Compounds are tested at each mGlu receptor in a two-addition FLIPR assay using a 10-point concentration response profile starting at a final concentration of 25 μM for the agonist assay and 12.5 μM for the potentiator and antagonist assays. […] Agonist effects are quantified as percent stimulation induced by compound alone relative to the maximal glutamate response. […]

human mGlu5 receptor = biological target: T3, human mGlu5 receptor (Homo sapiens, UniProt P41594); experiment: FLIPR calcium antagonist assay for mGlu receptor selectivity, mGlu5; assay type: cell-based; conditions: inhibition of EC90 glutamate response, read-out: mGlu5 % inhib. @12.5 μM
T3 construct: expressed in transfected cells; host or cells: AV12 cells co-expressing rat EAAT1
Source text: as §1, with “Devices).” for “Devices). The cell lines expressing the mGlu2, 3, 4, and 8 receptor are designed to express the Gα15 subunit so that these Gi-coupled receptors will generate a calcium flux response similar to the mGlu1 and 5 receptor expressing cell lines. The mGlu6 receptor is tested in a cAMP format using methods analogous to those developed for mGlu2 and mGlu3 above.”
as §2, §3

human mGlu3 receptor = biological target: T4, human mGlu3 receptor (Homo sapiens, UniProt Q14832); experiment: mGlu3 receptor cAMP antagonist assay; assay type: cell-based; conditions: reversal of DCG IV (EC90) inhibition of forskolin-stimulated cAMP; relative IC50
T4 construct: expressed in transfected cells; host or cells: AV12 cells co-expressing rat EAAT1
Procedure: (§4) Antagonist activity is assayed in recombinant AV12 cells stably expressing human mGlu2 or mGlu3 receptors and the rat glutamate transporter EAAT1 (Excitatory Amino Acid Transporter 1). The cell lines are maintained by culturing in DMEM with high glucose and pyridoxine hydrochloride supplemented with 5% dialyzed fetal bovine serum (FBS), 1 mM sodium pyruvate, 1 mM HEPES and 1 mM L-glutamine; geneticin and hygromycin B are used as selection antibiotics.
(§5) Reversal of the inhibition of forskolin-stimulated cAMP production by test compounds is measured using homogeneous time resolved fluorescence technology (HTRF; Cisbio cat #62AM4PEB). The medium is removed and the cells are incubated with 100 μl cAMP stimulation buffer (STIM) for 30 minutes at 37° C. […] Cells are incubated at 37° C. for 20 minutes. To measure the cAMP levels, cAMP-d2 conjugate and anti cAMP-cryptate conjugate in lysis buffer are incubated with the treated cells at room temperature for 1 hour (mGlu2) or 1.5 hour (mGlu3). […] The raw data are converted to cAMP amount (pmole/well) using a cAMP standard curve generated for each experiment. Relative IC50 values are calculated from the top-bottom range of the concentration response curve using a four-parameter logistic curve fitting program (ActivityBase v5.3.1.22).

male NIH-Swiss mice = experiment: Forced-swim test in mice (mFST); assay type: in vivo, mouse; conditions: i.p.
human mGlu8 receptor = biological target: T5, human mGlu8 receptor (Homo sapiens, UniProt O00222); experiment: FLIPR calcium antagonist assay for mGlu receptor selectivity, mGlu8; assay type: cell-based
T5 construct: expressed in transfected cells; host or cells: AV12 cells co-expressing rat EAAT1 and Galpha15
Source text: The relative antagonist potencies of the compounds of the invention for the other human mGlu receptors can be assessed with either a cAMP assay or fluorometric calcium response assay (see for example Fell et al., JPET (in press)). Briefly, individual AV12 cell lines containing the rat EAAT1 glutamate transporter and stably expressing the human mGlu1, 2, 3, 4, 5, 6, & 8 receptors are used for these studies. The mGlu1 and 5 receptors are Gq-coupled, so they naturally signal through phospholipase C, producing a calcium flux response which can be used to measure receptor activation using a Fluorometric Imaging Plate Reader (FLIPR, Molecular Devices). The cell lines expressing the mGlu2, 3, 4, and 8 receptor are designed to express the Gα15 subunit so that these Gi-coupled receptors will generate a calcium flux response similar to the mGlu1 and 5 receptor expressing cell lines. The mGlu6 receptor is tested in a cAMP format using methods analogous to those developed for mGlu2 and mGlu3 above. These cell lines are maintained as previously described except that amounts of L-glutamine and selection agents (geneticin, hygromycin B, zeocin, and blasticidin) may vary depending on the cell line. Confluent cultures are passaged biweekly.
Intracellular calcium levels are monitored using FLIPR before and after the addition of test compounds and Fluo-3 AM (Invitrogen) or Calcium 4 (Molecular Devices) dye, depending on the cell line. Cells are plated 24 hours prior to assay in a variable concentration of glutamine and a variable density of cells per well, depending on the cell line. The medium is removed and the cells are incubated with 8 μM of dye (50 μl per well) for 90 or 120 minutes (depending on cell line) at 25° C. […] The results are analyzed using GraphPad Prism v4.03 to calculate the concentrations of glutamate needed to induce the EC90 (antagonist assay) and EC10 (potentiator assay) responses.
Compounds are tested at each mGlu receptor in a two-addition FLIPR assay using a 10-point concentration response profile starting at a final concentration of 25 μM for the agonist assay and 12.5 μM for the potentiator and antagonist assays. […] Agonist effects are quantified as percent stimulation induced by compound alone relative to the maximal glutamate response. Antagonist effects are quantified by calculating the percent inhibition of the EC90 glutamate response caused by the compound. Potentiation effects are quantified as percent increase in the presence of an EC10 response in glutamate relative to the ECmax response. All data are calculated as relative IC50 or EC50 values using a four-parameter logistic curve fitting program (ActivityBase v5.3.1.22).

human mGlu2 receptor = biological target: T6, human mGlu2 receptor (Homo sapiens, UniProt Q14416); experiment: mGlu2 receptor cAMP antagonist assay; assay type: cell-based; conditions: reversal of DCG IV (EC90) inhibition of forskolin-stimulated cAMP; relative IC50
T6 construct: expressed in transfected cells; host or cells: AV12 cells co-expressing rat EAAT1
Procedure: as §4, §5

[1] = system: mGlu2+/+ and mGlu2−/− mice; experiment: mFST in mGlu2 knock-out mice and +/+ littermates; conditions: 10 mg/kg, i.p., 30 min prior
Procedure: Briefly, male NIH-Swiss mice (Harlan Sprague-Dawley, Indianapolis, Ind.) weighing between 25-30 g are used. Group housed animals are removed from the vivarium to the testing area in their own cages and allowed to adapt to the new environment for at least 1 hour before testing. […] Mice are placed in a cylinder (diameter: 10 cm; height: 25 cm) filled with 6 cm of water (22-25° C.) for 6 min. The duration of immobility during the last 4 min. of the 6 min. period of the test was scored. A mouse is recorded as immobile when floating motionless or making only those movements necessary to keep its head above water.
In other experiments, mice with receptor deletions (mGlu2 knock-out mice) are studied; these mice are bred by heterozygote×heterozygote breeding and used as littermates for −/− and +/+ mouse comparisons (Taconic Farms).

human mGlu1 receptor = biological target: T7, human mGlu1 receptor (Homo sapiens, UniProt Q13255); experiment: FLIPR calcium antagonist assay for mGlu receptor selectivity, mGlu1; assay type: cell-based; conditions: inhibition of EC90 glutamate response, read-out: mGlu1 % inhib. @12.5 μM
T7 construct: expressed in transfected cells; host or cells: AV12 cells co-expressing rat EAAT1
Source text: as §1, with “Devices).” for “Devices). The cell lines expressing the mGlu2, 3, 4, and 8 receptor are designed to express the Gα15 subunit so that these Gi-coupled receptors will generate a calcium flux response similar to the mGlu1 and 5 receptor expressing cell lines. The mGlu6 receptor is tested in a cAMP format using methods analogous to those developed for mGlu2 and mGlu3 above.”
as §2, §3

T5 sequence (O00222 34-908): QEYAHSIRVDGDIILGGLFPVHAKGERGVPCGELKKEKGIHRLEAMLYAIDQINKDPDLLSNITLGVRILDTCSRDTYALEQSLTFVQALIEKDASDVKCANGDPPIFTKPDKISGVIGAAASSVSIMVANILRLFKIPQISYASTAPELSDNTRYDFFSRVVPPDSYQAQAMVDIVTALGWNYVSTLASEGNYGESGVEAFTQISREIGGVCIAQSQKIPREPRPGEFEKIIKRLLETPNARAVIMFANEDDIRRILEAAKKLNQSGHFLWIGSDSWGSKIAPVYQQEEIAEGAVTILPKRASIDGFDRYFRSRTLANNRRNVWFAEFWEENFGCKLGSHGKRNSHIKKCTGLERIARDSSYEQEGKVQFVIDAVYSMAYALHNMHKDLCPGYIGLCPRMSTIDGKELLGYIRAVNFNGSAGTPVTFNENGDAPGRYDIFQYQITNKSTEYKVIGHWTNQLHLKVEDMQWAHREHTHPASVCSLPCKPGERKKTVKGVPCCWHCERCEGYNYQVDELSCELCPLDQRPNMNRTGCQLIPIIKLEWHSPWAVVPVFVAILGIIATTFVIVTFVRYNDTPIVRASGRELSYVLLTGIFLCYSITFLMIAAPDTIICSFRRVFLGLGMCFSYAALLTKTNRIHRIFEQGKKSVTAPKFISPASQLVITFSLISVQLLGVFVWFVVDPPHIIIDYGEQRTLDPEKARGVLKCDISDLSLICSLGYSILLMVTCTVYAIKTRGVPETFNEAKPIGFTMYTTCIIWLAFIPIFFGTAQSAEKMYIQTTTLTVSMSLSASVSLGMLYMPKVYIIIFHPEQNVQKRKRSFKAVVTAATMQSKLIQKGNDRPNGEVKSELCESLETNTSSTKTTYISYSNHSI
T3 sequence (P41594 21-1212): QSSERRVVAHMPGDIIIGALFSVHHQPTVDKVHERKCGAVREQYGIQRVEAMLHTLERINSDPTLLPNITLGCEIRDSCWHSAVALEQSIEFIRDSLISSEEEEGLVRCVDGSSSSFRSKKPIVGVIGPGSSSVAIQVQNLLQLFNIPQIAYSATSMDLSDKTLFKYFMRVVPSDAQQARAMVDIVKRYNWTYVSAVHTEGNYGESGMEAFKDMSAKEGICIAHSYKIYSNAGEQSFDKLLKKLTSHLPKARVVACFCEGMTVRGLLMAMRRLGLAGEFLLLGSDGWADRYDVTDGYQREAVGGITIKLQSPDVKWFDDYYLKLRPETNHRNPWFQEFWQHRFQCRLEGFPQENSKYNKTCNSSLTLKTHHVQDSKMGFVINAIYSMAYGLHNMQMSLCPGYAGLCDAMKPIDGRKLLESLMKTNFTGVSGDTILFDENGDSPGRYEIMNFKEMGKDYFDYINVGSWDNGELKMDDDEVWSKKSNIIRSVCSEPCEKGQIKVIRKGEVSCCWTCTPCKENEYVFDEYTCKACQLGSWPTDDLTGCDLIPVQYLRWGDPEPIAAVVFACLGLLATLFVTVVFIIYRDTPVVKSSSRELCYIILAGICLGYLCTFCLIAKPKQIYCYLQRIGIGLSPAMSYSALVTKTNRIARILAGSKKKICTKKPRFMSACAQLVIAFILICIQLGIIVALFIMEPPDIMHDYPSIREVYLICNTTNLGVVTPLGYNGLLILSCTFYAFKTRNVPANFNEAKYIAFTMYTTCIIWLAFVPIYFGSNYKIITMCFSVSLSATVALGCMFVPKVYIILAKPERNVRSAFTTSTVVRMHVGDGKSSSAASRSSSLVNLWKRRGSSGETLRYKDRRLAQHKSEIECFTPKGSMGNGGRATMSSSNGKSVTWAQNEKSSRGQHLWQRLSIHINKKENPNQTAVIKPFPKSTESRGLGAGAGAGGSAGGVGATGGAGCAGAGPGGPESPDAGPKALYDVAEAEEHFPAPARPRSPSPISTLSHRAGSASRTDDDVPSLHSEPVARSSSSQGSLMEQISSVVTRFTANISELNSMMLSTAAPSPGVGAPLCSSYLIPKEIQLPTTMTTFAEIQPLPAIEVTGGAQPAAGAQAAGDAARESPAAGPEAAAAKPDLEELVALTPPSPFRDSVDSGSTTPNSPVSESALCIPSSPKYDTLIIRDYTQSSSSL
T2 sequence (Q14833 33-912): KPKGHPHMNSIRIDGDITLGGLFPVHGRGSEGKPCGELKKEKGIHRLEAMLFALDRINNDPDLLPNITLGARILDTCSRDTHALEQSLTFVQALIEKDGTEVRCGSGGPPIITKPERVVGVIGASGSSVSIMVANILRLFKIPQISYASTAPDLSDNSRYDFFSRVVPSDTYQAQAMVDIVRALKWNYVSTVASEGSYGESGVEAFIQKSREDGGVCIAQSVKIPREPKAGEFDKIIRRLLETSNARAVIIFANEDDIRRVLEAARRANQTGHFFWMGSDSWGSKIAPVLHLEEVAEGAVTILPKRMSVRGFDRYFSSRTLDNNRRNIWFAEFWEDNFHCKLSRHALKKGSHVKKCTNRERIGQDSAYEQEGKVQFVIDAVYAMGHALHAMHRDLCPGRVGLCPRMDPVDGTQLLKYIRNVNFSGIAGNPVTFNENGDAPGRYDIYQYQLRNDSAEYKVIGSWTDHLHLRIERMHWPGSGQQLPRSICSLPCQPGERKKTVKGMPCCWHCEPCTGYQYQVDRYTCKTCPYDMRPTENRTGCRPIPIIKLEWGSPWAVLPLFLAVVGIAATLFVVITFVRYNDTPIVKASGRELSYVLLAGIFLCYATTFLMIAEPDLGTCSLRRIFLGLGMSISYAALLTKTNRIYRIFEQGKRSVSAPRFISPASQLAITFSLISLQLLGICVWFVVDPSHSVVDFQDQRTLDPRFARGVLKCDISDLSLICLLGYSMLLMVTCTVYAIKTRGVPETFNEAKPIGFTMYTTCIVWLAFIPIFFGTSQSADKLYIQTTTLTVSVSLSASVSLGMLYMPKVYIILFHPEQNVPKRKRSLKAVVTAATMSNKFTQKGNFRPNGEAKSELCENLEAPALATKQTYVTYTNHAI
T1 sequence (O15303 25-877): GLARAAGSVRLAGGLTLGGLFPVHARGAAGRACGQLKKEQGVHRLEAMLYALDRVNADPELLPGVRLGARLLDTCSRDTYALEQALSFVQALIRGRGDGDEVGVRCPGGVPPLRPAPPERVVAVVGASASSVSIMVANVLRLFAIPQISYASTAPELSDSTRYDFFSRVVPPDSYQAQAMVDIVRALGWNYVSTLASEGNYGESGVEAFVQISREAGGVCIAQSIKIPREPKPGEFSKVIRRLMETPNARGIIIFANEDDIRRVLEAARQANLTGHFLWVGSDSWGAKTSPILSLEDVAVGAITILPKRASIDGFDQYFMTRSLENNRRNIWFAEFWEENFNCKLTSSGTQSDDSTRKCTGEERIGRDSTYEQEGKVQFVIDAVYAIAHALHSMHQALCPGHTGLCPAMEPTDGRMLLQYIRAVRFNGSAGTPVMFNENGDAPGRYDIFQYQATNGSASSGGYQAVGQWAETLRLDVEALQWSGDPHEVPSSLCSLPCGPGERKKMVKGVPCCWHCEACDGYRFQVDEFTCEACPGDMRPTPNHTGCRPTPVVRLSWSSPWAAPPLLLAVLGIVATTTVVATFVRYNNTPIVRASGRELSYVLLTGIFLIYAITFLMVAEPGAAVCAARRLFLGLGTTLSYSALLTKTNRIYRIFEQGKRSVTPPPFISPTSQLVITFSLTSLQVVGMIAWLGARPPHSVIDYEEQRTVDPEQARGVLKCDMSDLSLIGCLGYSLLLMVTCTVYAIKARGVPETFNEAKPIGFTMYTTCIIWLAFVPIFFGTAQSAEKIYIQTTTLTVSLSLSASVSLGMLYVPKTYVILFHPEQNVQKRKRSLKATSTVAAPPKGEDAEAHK
T6 sequence (Q14416 19-872): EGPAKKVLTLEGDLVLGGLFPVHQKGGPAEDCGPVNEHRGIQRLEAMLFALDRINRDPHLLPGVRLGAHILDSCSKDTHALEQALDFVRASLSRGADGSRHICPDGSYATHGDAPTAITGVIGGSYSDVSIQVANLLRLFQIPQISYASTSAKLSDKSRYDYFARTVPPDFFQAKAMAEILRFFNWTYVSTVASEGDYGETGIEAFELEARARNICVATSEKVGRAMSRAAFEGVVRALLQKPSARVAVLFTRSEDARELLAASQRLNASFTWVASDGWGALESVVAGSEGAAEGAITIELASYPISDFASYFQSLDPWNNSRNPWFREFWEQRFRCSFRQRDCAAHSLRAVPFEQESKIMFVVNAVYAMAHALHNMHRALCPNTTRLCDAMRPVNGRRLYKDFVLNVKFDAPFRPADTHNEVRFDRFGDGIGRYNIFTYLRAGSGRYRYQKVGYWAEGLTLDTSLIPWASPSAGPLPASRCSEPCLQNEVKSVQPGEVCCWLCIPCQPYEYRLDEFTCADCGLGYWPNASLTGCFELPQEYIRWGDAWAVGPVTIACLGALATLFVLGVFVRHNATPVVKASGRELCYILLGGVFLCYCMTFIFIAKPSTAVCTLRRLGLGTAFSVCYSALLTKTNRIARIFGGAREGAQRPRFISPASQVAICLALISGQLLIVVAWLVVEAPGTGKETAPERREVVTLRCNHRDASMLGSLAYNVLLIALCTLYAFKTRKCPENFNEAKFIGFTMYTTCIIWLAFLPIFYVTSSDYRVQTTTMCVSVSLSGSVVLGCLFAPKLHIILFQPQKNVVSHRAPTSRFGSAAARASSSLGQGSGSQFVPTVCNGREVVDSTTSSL

IC50 (human mGlu6 receptor): 1390 nM
inhibition at 12.5 µM (human mGlu4 receptor): 28%
inhibition at 12.5 µM (human mGlu5 receptor): 21.4%
IC50 (human mGlu3 receptor): 13.4 ± 3.4 nM
inhibition at 12.5 µM (human mGlu8 receptor; 12.5 μM, inhibition of EC90 glutamate response, read-out: mGlu8 % inhib. @12.5 μM): 68.7%
IC50 (human mGlu8 receptor; FLIPR antagonist, in brackets under % inhib.): 7860 nM
IC50 (human mGlu2 receptor): 12.7 ± 2.3 nM
inhibition at 12.5 µM (human mGlu1 receptor): 7.9%
Compound: Cl.N[C@]1(C(=O)O)[C@@H]2[C@@H](C(=O)O)[C@@H]2[C@H](O)[C@H]1CSc1ccc(F)c(Cl)c1 [Example 2, (1S,2R,3S,4S,5R,6R)-2-Amino-3-{[(3-chloro-4-fluorophenyl)sulfanyl]methyl}-4-hydroxybicyclo[3.1.0]hexane-2,6-dicarboxylic acid hydrochloride]
ED60 (mg/kg) (male NIH-Swiss mice; immobility, last 4 min of 6 min): 24.5 (i.p.) mg/kg
Maximal Decrease (1 − compound/control) * 100% (male NIH-Swiss mice; immobilization time): 33.5%
immobility time in mGlu2+/+ mice [1]: significantly decrease immobility time
